Data published in patent US10829501B2 (BRISTOL-MYERS SQUIBB COMPANY, priority 2016, dated 2020).
pIC50: −log10 of the molar value. Counter-ions that a name gives are not always drawn.

biological target: ROCK2 (Homo sapiens, UniProt O75116); test: ROCK2 kinase inhibition assay (LABCHIP 3000 Reader, FITC peptide substrate);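 also: rho kinase reaction read by separating phosphorylated from unphosphorylated peptide on chip, with inhibition of kinase activity computed per concentration across a dose-response series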
Sequence (O75116 whole entry, species assumed): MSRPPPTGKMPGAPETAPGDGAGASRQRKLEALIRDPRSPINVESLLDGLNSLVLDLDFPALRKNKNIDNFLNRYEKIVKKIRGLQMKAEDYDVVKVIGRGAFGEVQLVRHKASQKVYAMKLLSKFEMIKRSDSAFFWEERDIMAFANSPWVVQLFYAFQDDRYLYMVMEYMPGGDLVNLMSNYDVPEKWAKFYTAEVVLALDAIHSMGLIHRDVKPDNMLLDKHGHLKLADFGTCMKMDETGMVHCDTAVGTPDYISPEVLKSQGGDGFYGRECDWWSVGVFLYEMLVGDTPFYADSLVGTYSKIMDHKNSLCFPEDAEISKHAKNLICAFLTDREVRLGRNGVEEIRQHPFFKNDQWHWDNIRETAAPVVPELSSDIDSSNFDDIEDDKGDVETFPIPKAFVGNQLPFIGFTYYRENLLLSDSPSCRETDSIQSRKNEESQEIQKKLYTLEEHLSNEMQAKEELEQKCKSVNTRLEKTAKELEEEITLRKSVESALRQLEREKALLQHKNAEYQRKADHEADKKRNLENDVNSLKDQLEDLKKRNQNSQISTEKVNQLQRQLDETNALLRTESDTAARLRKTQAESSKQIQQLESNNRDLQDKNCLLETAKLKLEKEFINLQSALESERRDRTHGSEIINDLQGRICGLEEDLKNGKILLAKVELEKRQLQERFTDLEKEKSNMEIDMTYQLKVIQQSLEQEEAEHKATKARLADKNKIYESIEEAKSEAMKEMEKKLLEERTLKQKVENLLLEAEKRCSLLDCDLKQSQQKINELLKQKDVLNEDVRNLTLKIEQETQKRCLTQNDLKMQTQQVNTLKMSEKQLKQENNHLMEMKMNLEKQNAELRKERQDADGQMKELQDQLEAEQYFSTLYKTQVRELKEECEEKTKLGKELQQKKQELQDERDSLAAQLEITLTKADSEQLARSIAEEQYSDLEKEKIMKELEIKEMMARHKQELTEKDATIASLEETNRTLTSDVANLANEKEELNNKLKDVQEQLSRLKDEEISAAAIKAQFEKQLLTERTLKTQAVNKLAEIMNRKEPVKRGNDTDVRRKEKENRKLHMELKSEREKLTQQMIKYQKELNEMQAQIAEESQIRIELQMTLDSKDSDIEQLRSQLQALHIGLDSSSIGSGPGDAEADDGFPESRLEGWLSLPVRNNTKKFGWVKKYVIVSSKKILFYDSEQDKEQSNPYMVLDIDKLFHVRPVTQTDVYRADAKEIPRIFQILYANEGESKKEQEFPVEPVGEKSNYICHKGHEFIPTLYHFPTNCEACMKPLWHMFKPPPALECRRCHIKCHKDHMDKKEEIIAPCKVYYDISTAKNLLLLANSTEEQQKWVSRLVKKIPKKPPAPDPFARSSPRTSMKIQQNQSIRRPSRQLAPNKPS

Row | Compound | pIC50
1 | [H][C@]1(Oc2ncccc2C(N)=O)C[C@@]2(C[C@H](NC(=O)c3cn4nc(OC)ccc4n3)C2)C1 (stereo partly drawn) [Example 59, N-((aR)-6-((3-carbamoylpyridin-2-yl)oxy)spiro[3.3]heptan-2-yl)-6-methoxyimidazo[1,2-b]pyridazine-2-carboxamide] | 5.60 to 6.60
2 | [H][C@]1(Oc2ncccc2C(N)=O)C[C@@]2(C[C@H](NC(=O)c3cnc4c(OC)cc(Cl)nn34)C2)C1 (stereo partly drawn) [Example 60, N-((aR)-6-((3-carbamoylpyridin-2-yl)oxy)spiro[3.3]heptan-2-yl)-6-chloro-8-methoxyimidazo[1,2-b]pyridazine-3-carboxamide] | 5.60 to 6.60
3 | [H][C@]1(Oc2ncccc2C(N)=O)C[C@@]2(C[C@H](NC(=O)c3cn4nc(Cl)ccc4n3)C2)C1 (stereo partly drawn) [Example 62, N-((aR)-6-((3-carbamoylpyridin-2-yl)oxy)spiro[3.3]heptan-2-yl)-6-chloroimidazo[1,2-b]pyridazine-2-carboxamide] | 5.60 to 6.60
4 | [H][C@]1(Oc2ncccc2C(N)=O)C[C@@]2(C[C@H](NC(=O)c3cn4cc(C(N)=O)ccc4n3)C2)C1 (stereo partly drawn) [Example 63, N^2-((aR)-6-((3-carbamoylpyridin-2-yl)oxy)spiro[3.3]heptan-2-yl)imidazo[1,2-a]pyridine-2,6-dicarboxamide] | 5.60 to 6.60
5 | Cn1c(C(=O)N[C@H]2CC3(C2)C[C@H](Oc2ncccc2C(N)=O)C3)cc2ccccc21 (stereo partly drawn) [Example 70, N-((aR)-6-((3-carbamoylpyridin-2-yl)oxy)spiro[3.3]heptan-2-yl)-1-methyl-1H-indole-2-carboxamide, trifluoroacetate] | 6.60 to 7.30
6 | NC(=O)c1cccnc1O[C@H]1CC2(C[C@H](NC(=O)c3ccn4ccnc4c3)C2)C1 (stereo partly drawn) [Example 71, N-((aR)-6-((3-carbamoylpyridin-2-yl)oxy)spiro[3.3]-heptan-2-yl)imidazo[1,2-a] pyridine-7-carboxamdie, trifluoroacetate] | 5.60 to 6.60
7 | NC(=O)c1cccnc1O[C@H]1CC2(C[C@H](NC(=O)c3ccc(-n4cccn4)cc3)C2)C1 (stereo partly drawn) [Example 74, 2-((aR)-6-(4-(1H-pyrazol-1-yl)benzamido)spiro[3.3]heptan-2-yl)oxy) nicotinamide, trifluoroacetate] | 5.60 to 6.60
8 | NC(=O)c1cccnc1O[C@H]1CC2(C[C@H](NC(=O)c3cn4ccccc4n3)C2)C1 (stereo partly drawn) [Example 75, N-((aR)-6-((3-carbamoylpyridin-2-yl)oxy)spiro[3.3]-heptan-2-yl)imidazo[1,2-a] pyridine-2-carboxamide, trifluoroacetate] | 5.60 to 6.60
9 | N#Cc1ccc2nc(C(=O)N[C@H]3CC4(C3)C[C@H](Oc3ncccc3C(N)=O)C4)cn2c1 (stereo partly drawn) [Example 76, N-((aR)-6-((3-carbamoylpyridin-2-yl)oxy)spiro-[3.3]heptan-2-yl)-6-cyanoimidazo-[1,2-a]pyridine-2-carboxamide, trifluoroacetate] | 5.60 to 6.60
10 | COCCOCCn1nc(C(=O)N[C@H]2CC3(C2)C[C@H](Oc2ncccc2C(N)=O)C3)c2ccccc21 (stereo partly drawn) [Example 78, N-((aR)-6-((3-carbamoylpyridin-2-yl)oxy)spiro[3.3]heptan-2-yl)-1-(2-(2-methoxy-ethoxy)ethyl)-1H-indazole-3-carboxamide, trifluoroacetate] | 6.60 to 7.30
11 | COc1cc(C(=O)N[C@H]2CC3(C2)C[C@H](Oc2ncccc2C(N)=O)C3)ccc1-n1cnc(C)c1 (stereo partly drawn) [Example 79, 2-((aR)-6-(3-methoxy-4-(4-methyl-1H-imidazol-1-yl)benzamido)spiro-[3.3]heptan-2-yl)oxy) nicotinamide, trifluoroacetate] | 6.60 to 7.30
12 | Cc1cc(C(=O)N[C@H]2CC3(C2)C[C@H](Oc2ncccc2C(N)=O)C3)n(C)n1 (stereo partly drawn) [Example 83, 2-((aR)-6-(1,3-dimethyl-1H-pyrazole-5-carboxamido)spiro[3.3]heptan-2-yl)oxy)nicotinamide, trifluoroacetate] | 5.60 to 6.60
13 | Cn1nc(C(=O)N[C@H]2CC3(C2)C[C@H](Oc2ncccc2C(N)=O)C3)cc1OCC1CC1 (stereo partly drawn) [Example 84, 2-((aR)-6-(5-(cyclopropyl-methoxy)-1-methyl-1H-pyrazole-3-carboxamido)spiro-[3.3]heptan-2-yl)oxy) nicotinamide, trifluoroacetate] | 6.60 to 7.30
14 | Cn1nc(C2CC2)cc1C(=O)N[C@H]1CC2(C1)C[C@H](Oc1ncccc1C(N)=O)C2 (stereo partly drawn) [Example 85, 2-((aR)-6-(3-cyclopropyl-1-methyl-1H-pyrazole-5-carboxamido)spiro[3.3]heptan-2-yl)oxy) nicotinamide, trifluoroacetate] | 6.60 to 7.30

Second part, the compound after the results:

Row | pIC50 | Compound
15 | > 8.30 | [H][C@]1(Oc2ncccc2C(N)=O)C[C@@]2(C[C@H](NC(=O)c3cnn4c(C5CC5)c(OCC(C)(C)F)ccc34)C2)C1 (stereo partly drawn) [Example 49, N-((aR)-6-((3-carbamoylpyridin-2-yl)oxy)spiro[3.3]heptan-2-yl)-7-cyclopropyl-6-(2-fluoro-2-methylpropoxy)pyrazolo[1,5-a]pyridine-3-carboxamide]
16 | 7.30 to 8.30 | [H][C@]1(Oc2ncccc2C(N)=O)C[C@@]2(C[C@H](NC(=O)c3nn(CC(C)(C)O)c4ccc(-c5cnn(C)c5)cc34)C2)C1 (stereo partly drawn) [Example 50, N-((aR)-6-((3-carbamoylpyridin-2-yl)oxy)spiro[3.3]heptan-2-yl)-1-(2-hydroxy-2-methylpropyl)-5-(1-methyl-1H-pyrazol-4-yl)-1H-indazole-3-carboxamide]
17 | 7.30 to 8.30 | [H][C@]1(Oc2ncccc2C(N)=O)C[C@@]2(C[C@H](NC(=O)c3cc(-c4cnn(C(F)F)c4)cc(S(C)(=O)=O)c3)C2)C1 (stereo partly shown) [Example 51]
18 | 7.30 to 8.30 | [H][C@]1(Oc2ncccc2C(N)=O)C[C@@]2(C[C@H](NC(=O)c3cc(-c4cnn(C)c4)cc(S(C)(=O)=O)c3)C2)C1 (stereo partly shown) [Example 52]
19 | 7.30 to 8.30 | [2H]C([2H])([2H])n1cc(-c2cc(C(=O)N[C@H]3CC4(C3)C[C@H](Oc3ncccc3C(N)=O)C4)cc(S(C)(=O)=O)c2)cn1 (stereo partly shown) [Example 53, 2-{[(4s)-6-{3-methanesulfonyl-5-[1-(^2H3)methyl-1H-pyrazol-4-yl]benzamido}spiro[3.3]heptan-2-yl]oxy}pyridine-3-carboxamide]
20 | 6.60 to 7.30 | [H][C@]1(Oc2ncccc2C(N)=O)C[C@@]2(C[C@H](NC(=O)c3cccc(-c4cnn(C)c4)c3)C2)C1 (stereo partly shown) [Example 54]
21 | 6.60 to 7.30 | [H][C@]1(Oc2ncccc2C(N)=O)C[C@@]2(C[C@H](NC(=O)c3cccc(-c4cccc(S(C)(=O)=O)c4)c3)C2)C1 (stereo partly shown) [Example 55]
22 | 7.30 to 8.30 | [H][C@]1(Oc2ncccc2C(N)=O)C[C@@]2(C[C@H](NC(=O)c3cc(Br)cc(OCCC(F)(F)F)c3)C2)C1 (stereo partly shown) [Example 56]
23 | 6.60 to 7.30 | [H][C@]1(Oc2ncccc2C(N)=O)C[C@@]2(C[C@H](NC(=O)c3cc(OCCC(F)(F)F)cc(-c4cnn(C)c4)c3)C2)C1 (stereo partly shown) [Example 57]
24 | 6.60 to 7.30 | [H][C@]1(Oc2ncccc2C(N)=O)C[C@@]2(C[C@H](NC(=O)c3cc(OCCC(F)(F)F)cc(-c4cccc(S(C)(=O)=O)c4)c3)C2)C1 (stereo partly shown) [Example 58]
25 | 6.60 to 7.30 | [H][C@]1(Oc2ncccc2C(N)=O)C[C@@]2(C[C@H](NC(=O)c3cn4nc(OCC(F)(F)F)ccc4n3)C2)C1 (stereo partly drawn) [Example 61, N-((aR)-6-((3-carbamoylpyridin-2-yl)oxy)spiro[3.3]heptan-2-yl)-6-(2,2,2-trifluoroethoxy)imidazo[1,2-b]pyridazine-2-carboxamide]
26 | 7.30 to 8.30 | CC(C)(O)COc1ccc2c(C(=O)N[C@H]3CC4(C3)C[C@H](Oc3ncccc3C(N)=O)C4)cnn2c1 (stereo partly drawn) [Example 64, N-((aR)-6-((3-carbamoylpyridin-2-yl)oxy)spiro[3.3]-heptan-2-yl)-6-(2-hydroxy-2-methylpropoxy) pyrazolo-[1,5-a]pyridine-3-carboxamide, trifluoroacetate]
27 | > 8.30 | CC(C)(O)COc1ccn2c(C(=O)N[C@H]3CC4(C3)C[C@H](Oc3ncccc3C(N)=O)C4)cnc2c1C1CC1 (stereo partly drawn) [Example 65, N-((aR)-6-((3-carbamoylpyridin-2-yl)oxy)spiro[3.3]heptan-2-yl)-8-cyclopropyl-7-(2-hydroxy-2-methylpropoxy) imidazo[1,2-a]pyridine-3-carboxamide, trifluoroacetate]
28 | 7.30 to 8.30 | Cn1nc(C(=O)N[C@H]2CC3(C2)C[C@H](Oc2ncccc2C(N)=O)C3)c2ccccc21 (stereo partly shown) [Example 66]
29 | 6.60 to 7.30 | Cn1ncc2cc(C(=O)N[C@H]3CC4(C3)C[C@H](Oc3ncccc3C(N)=O)C4)ccc21 (stereo partly drawn) [Example 68, N-((aR)-6-((3-carbamoylpyridin-2-yl)oxy)spiro[3.3]heptan-2-yl)-1-methyl-1H-indazole-5-carboxamide, trifluoroacetae]
30 | 7.30 to 8.30 | NC(=O)c1cccnc1O[C@H]1CC2(C[C@H](NC(=O)c3cnc4ccccc4c3)C2)C1 (stereo partly drawn) [Example 72, N-((aR)-6-((3-carbamoylpyridin-2-yl)oxy)spiro[3.3]-heptan-2-yl)quinoline-3-carboxamide, trifluoroacetate]
31 | 7.30 to 8.30 | Cn1nc(C(C)(C)C)cc1C(=O)N[C@H]1CC2(C1)C[C@H](Oc1ncccc1C(N)=O)C2 (stereo partly drawn) [Example 77, 2-((aR)-6-(3-(tert-butyl)-1-methyl-1H-pyraole-5-carboxamido)spiro[3.3]heptan-2-yl)oxy) nicotinamide, trifluoroacetate]
32 | 7.30 to 8.30 | CN(C)CCOc1ccc2c(C(=O)N[C@H]3CC4(C3)C[C@H](Oc3ncccc3C(N)=O)C4)cnn2c1 (stereo partly drawn) [Example 80, N-((aR)-6-((3-carbamoylpyridin-2-yl)oxy)spiro[3.3]heptan-2-yl)-6-(2-(dimethylamino)ethoxy) pyrazolo[1,5-a] pyridine-3-carboxamdie, trifluoroacetate]
33 | 7.30 to 8.30 | CC(C)(O)Cn1nc(C(=O)N[C@H]2CC3(C2)C[C@H](Oc2ncccc2C(N)=O)C3)c2ccc(Br)cc21 (stereo partly drawn) [Example 81, 6-bromo-N-((aR)-6-((3-carbamoylpyridin-2-yl)oxy)spiro[3.3]heptan-2-yl)-1-(2-hydroxy-2-methylpropyl)-1H-indazole-3-carboxamdie, trifluoroacetate]
34 | > 8.30 | NC(=O)c1cccnc1O[C@H]1CC2(C[C@H](NC(=O)c3cnn4cc(OCCC(F)(F)F)ccc34)C2)C1 (stereo partly drawn) [Example 82, N-((aR)-6-((3-carbamoylpyridin-2-yl)oxy)spiro[3.3]heptan-2-yl)-6-(3,3,3-trifluoropropoxy) pyrazolo[1,5-a]pyridine-3-carboxamide, trifluoroacetate]
